Measured values published in patent publication US20120053197A1, “TRICYCLIC PYRIDINE DERIVATIVES, MEDICAMENTS CONTAINING SUCH COMPOUNDS, THEIR USE AND PROCESS FOR THEIR PREPARATION” (BOEHRINGER INGELHEIM INTERNATIONAL GMBH, priority 2010, published 2012).

These compounds were tested against T1, recombinant human CETP (Homo sapiens, UniProt P11597) (assay: CETP in vitro fluorometric assay (Roar Biomedical), cholesterol ester transfer from HDL to LDL). Conditions: recombinant human CETP from CHO cells; 3 hours at 37° C.; fluorescence ex 485 nm / em 535 nm; compound concentrations between 1 nM and 30 μM; read-out: IC50 values for inhibition of CETP.
T1 construct: made in house; host or cells: CHO cells (protein secreted into conditioned medium)
T1 sequence (P11597 18-493): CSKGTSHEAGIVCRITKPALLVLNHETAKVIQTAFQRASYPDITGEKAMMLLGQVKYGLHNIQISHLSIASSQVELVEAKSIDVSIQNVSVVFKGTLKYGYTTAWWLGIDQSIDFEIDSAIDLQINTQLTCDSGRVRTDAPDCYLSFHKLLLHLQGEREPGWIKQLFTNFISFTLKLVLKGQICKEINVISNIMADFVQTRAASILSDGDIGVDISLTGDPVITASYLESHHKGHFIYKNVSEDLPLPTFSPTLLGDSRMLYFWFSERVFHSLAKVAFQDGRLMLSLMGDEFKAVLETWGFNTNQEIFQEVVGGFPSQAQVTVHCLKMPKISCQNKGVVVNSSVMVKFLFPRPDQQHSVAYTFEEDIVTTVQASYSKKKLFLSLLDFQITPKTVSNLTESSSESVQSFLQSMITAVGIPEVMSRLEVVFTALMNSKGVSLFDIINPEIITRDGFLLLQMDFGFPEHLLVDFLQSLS
Assay type: biochemical
Experimental: CETP inhibitory activity of compounds of the present invention can be determined in a fluorometric assay puchased from Roar Biomedical, Inc. (New York, N.Y., USA). […] Recombinant human CETP was partially purified from medium conditioned by CETP expressing CHO cells. In a 384 well format 2.5 μl of compound solution in DMSO was combined with 2 μl of donor solution, 2 μl of acceptor solution and 0.8 μl of recombinant human CETP solution in a total volume of 100 μl with assay buffer and incubated for 3 hours at 37° C. The fluorescence intensity was measured at excitation wavelength of 485 nm and emission wavelength of 535 nm. IC50 values are calculated from dose effect curves from compound concentrations between 1 nM and 30 μM.

IC50 [nM] | Compound
875 | CC(C)c1nc2c(c3c1[C@@H](c1ccc(C(C)(C)O)cc1)OC31CCCC1)[C@@H](O)CC(C)(C)C2 [1(26), (3′R,9′S)-3′-(4-(2-hydroxypropan-2-yl)phenyl)-4′-isopropyl-7′,7′-dimethyl-6′,7′,8′,9′-tetrahydro-3′H-spiro[cyclopentane-1,1′-furo[3,4-c]quinolin]-9′-ol]
299 | CC(C)Cc1ccc([C@H]2OC3(CCCC3)c3c2c(C(C)C)nc2c3[C@@H](O)CC(C)(C)C2)cc1 [1(27), (3′R,9′S)-3′-(4-isobutylphenyl)-4′-isopropyl-7′,7′-dimethyl-6′,7′,8′,9′-tetrahydro-3′H-spiro[cyclopentane-1,1′-furo[3,4-c]quinolin]-9′-ol]
18 | CC(C)c1nc2c(c3c1[C@@H](c1ccc(C(F)(F)F)cc1)OC31CCOCC1)[C@@H](O)CC(C)(C)C2 [1(30), (3R,9S)-4-isopropyl-7,7-dimethyl-3-(4-(trifluoromethyl)phenyl)-2′,3′,5′,6,6′,7,8,9-octahydro-3H-spiro[furo[3,4-c]quinoline-1,4′-pyran]-9-ol]
62 | CC(C)c1nc2c(c3c1[C@@H](c1ccc(C(C)(F)F)cc1)OC31CCCC1)[C@@H](O)CC(C)(C)C2 [1(32), (3′R,9′S)-3′-(4-(1,1-difluoroethyl)phenyl)-4′-isopropyl-7′,7′-dimethyl-6′,7′,8′,9′-tetrahydro-3′H-spiro[cyclopentane-1,1′-furo[3,4-c]quinolin]-9′-ol]
52 | CC(C)c1ccc([C@H]2OC3(CCCC3)c3c2c(C(C)C)nc2c3[C@@H](O)CC3(CCC3)C2)cc1 [1(35), (3′R,9′S)-4′-isopropyl-7′,7′-(propan-1,3-diyl)-3′-(4-(isopropyl)phenyl)-6′,7′,8′,9′-tetrahydro-3′H-spiro[cyclopentane-1,1′-furo[3,4-c]quinolin]-9′-ol]
3320 | CC(C)c1nc2c(c3c1[C@@H](c1cc(F)cc(F)c1)OC31CCCC1)[C@@H](O)CC(C)(C)C2 [1(38), (3′R,9′S)-3′-(3,5-difluorophenyl)-4′-isopropyl-7′,7′-dimethyl-6′,7′,8′,9′-tetrahydro-3′H-spiro[cyclopentane-1,1′-furo[3,4-c]quinolin]-9′-ol]
37 | CC(C)c1nc2c(c3c1[C@@H](c1ccc(C4(C)CC4)cc1)OC31CCCC1)[C@@H](O)CC(C)(C)C2 [1(40), (3′R,9′S)-4′-isopropyl-7′,7′-dimethyl-3′-(4-(1-methylcyclopropyl)phenyl)-6′,7′,8′,9′-tetrahydro-3′H-spiro[cyclopentane-1,1′-furo[3,4-c]quinolin]-9′-ol]
524 | CC(C)c1nc2c(c3c1[C@@H](c1cccc(C(F)(F)F)c1)OC31CCCC1)[C@@H](O)CC(C)(C)C2 [1(41), (3′R,9′S)-4′-isopropyl-7′,7′-dimethyl-3′-(3-(trifluoromethyl)phenyl)-6′,7′,8′,9′-tetrahydro-3′H-spiro[cyclopentane-1,1′-furo[3,4-c]quinolin]-9′-ol]
25 | CC(C)c1nc2c(c3c1[C@@H](c1ccc(C(C)(C)C)cc1)OC31CCOCC1)[C@@H](O)CC(C)(C)C2 [1(42), (3R,9S)-3-(4-tert-butylphenyl)-4-isopropyl-7,7-dimethyl-2′,3′,5′,6,6′,7,8,9-octahydro-3H-spiro[furo[3,4-c]quinoline-1,4′-pyran]-9-ol]
69 | CC(C)c1nc2c(c3c1[C@@H](c1ccc(C4(C#N)CC4)cc1)OC31CCCC1)[C@@H](O)CC(C)(C)C2 [1(44), 1-(4-((3′R,9′S)-9′-hydroxy-4′-isopropyl-7′,7′-dimethyl-6′,7′,8′,9′-tetrahydro-3′H-spiro[cyclopentane-1,1′-furo[3,4-c]quinoline]-3′-yl)phenyl)cyclopropanecarbonitrile]
122 | CC(C)c1nc2c(c3c1[C@@H](c1ccc(C4CC4)cc1)OC31CCCC1)[C@@H](O)CC(C)(C)C2 [1(45), (3′R,9′S)-3′-(4-cyclopropylphenyl)-4′-isopropyl-7′,7′-dimethyl-6′,7′,8′,9′-tetrahydro-3′H-spiro[cyclopentane-1,1′-furo[3,4-c]quinolin]-9′-ol]
54 | CC(C)c1nc2c(c3c1[C@@H](c1ccc(C(F)(F)F)cc1)OC31CCCC1)[C@@H](O)CC(C)(C)C2 [Example 1, (3′R,9′S)-4′-isopropyl-7′,7′-dimethyl-3′-(4-(trifluoromethyl)phenyl)-6′,7′,8′,9′-tetrahydro-3′H-spiro[cyclopentane-1,1′-furo[3,4-c]quinolin]-9′-ol]

Further lines, the compound ahead of its results:

Compound | IC50 [nM]
CC1(C)Cc2nc(C3CCC3)c3c(c2[C@@H](O)C1)C1(CCCC1)O[C@@H]3c1ccc(C(F)(F)F)cc1 [1(28), (3′R,9′S)-4′-cyclobutyl-7′,7′-dimethyl-3′-(4-(trifluoromethyl)phenyl)-6′,7′,8′,9′-tetrahydro-3′H-spiro[cyclopentane-1,1′-furo[3,4-c]quinolin]-9′-ol] | 51
CC(C)c1ccc([C@H]2OC3(CCCC3)c3c2c(C2CCCC2)nc2c3[C@@H](O)CC(C)(C)C2)cc1 [1(29), (3′R,9′S)-4′-cyclopentyl-3′-(4-isopropylphenyl)-7′,7′-dimethyl-6′,7′,8′,9′-tetrahydro-3′H-spiro[cyclopentane-1,1′-furo[3,4-c]quinolin]-9′-ol] | 88
CC1(C)Cc2nc(C3CCCC3)c3c(c2[C@@H](O)C1)C1(CCCC1)O[C@@H]3c1cccc(C(C)(C)C)c1 [1(31), (3′R,9′S)-3′-(3-tert-butylphenyl)-4′-cyclopentyl-7′,7′-dimethyl-6′,7′,8′,9′-tetrahydro-3′H-spiro[cyclopentane-1,1′-furo[3,4-c]quinolin]-9′-ol] | 1070
CC(=O)O[C@H]1c2nc(C(C)C)c3c(c2[C@@H](O)CC1(C)C)C1(CCCC1)O[C@@H]3c1ccc(C(F)(F)F)cc1 [1(33), (3′R,6′R,9′S)-9′-hydroxy-4′-isopropyl-7′,7′-dimethyl-3′-(4-(trifluoromethyl)phenyl)-6′,7′,8′,9′-tetrahydro-3′H-spiro[cyclopentane-1,1′-furo[3,4-c]quinoline]-6′-yl acetate] | 229
CC(=O)O[C@@H]1c2nc(C(C)C)c3c(c2[C@@H](O)CC1(C)C)C1(CCCC1)O[C@@H]3c1ccc(C(F)(F)F)cc1 [1(34), (3′R,6′S,9′S)-9′-hydroxy-4′-isopropyl-7′,7′-dimethyl-3′-(4-(trifluoromethyl)phenyl)-6′,7′,8′,9′-tetrahydro-3′H-spiro[cyclopentane-1,1′-furo[3,4-c]quinoline]-6′-yl acetate] | 137
CC1(C)Cc2nc(C3CCOCC3)c3c(c2[C@@H](O)C1)C1(CCCC1)O[C@@H]3c1ccc(C(C)(C)C)cc1 [1(36), (3′R,9′S)-3′-(4-tert-butylphenyl)-7′,7′-dimethyl-4′-(tetrahydro-2H-pyran-4-yl)-6′,7′,8′,9′-tetrahydro-3′H-spiro[cyclopentane-1,1′-furo[3,4-c]quinolin]-9′-ol] | 74
CCc1nc2c(c3c1[C@@H](c1ccc(C(F)(F)F)cc1)OC31CCCC1)[C@@H](O)CC(C)(C)C2 [1(37), (3′R,9′S)-4′-ethyl-7′,7′-dimethyl-3′-(4-(trifluoromethyl)phenyl)-6′,7′,8′,9′-tetrahydro-3′H-spiro[cyclopentane-1,1′-furo[3,4-c]quinolin]-9′-ol] | 418
CC1(C)Cc2nc(C3CCOCC3)c3c(c2[C@@H](O)C1)C1(CCOCC1)O[C@@H]3c1ccc(C(F)(F)F)cc1 [1(39), (3R,9S)-7,7-dimethyl-4-(tetrahydro-2H-pyran-4-yl)-3-(4-(trifluoromethyl)phenyl)-2′,3′,5′,6,6′,7,8,9-octahydro-3H-spiro[furo[3,4-c]quinoline-1,4′-pyran]-9-ol] | 56
CC1(C)Cc2nc(C3CCOCC3)c3c(c2[C@@H](O)C1)C1(CCCC1)O[C@@H]3c1ccc(S(F)(F)(F)(F)F)cc1 [1(43), (3′R,9′S)-7′,7′-dimethyl-4′-(tetrahydro-2H-pyran-4-yl)-3′-(4-(pentafluorosulfanyl)phenyl)-6′,7′,8′,9′-tetrahydro-3′H-spiro[cyclopentane-1,1′-furo[3,4-c]quinolin]-9′-ol] | 22
CC(C)c1nc2c(c3c1[C@@H](c1ccc(C(F)(F)F)cc1)OC31CCCC1)[C@@H](O)CC(C)(C)[C@@H]2O [3(1), (3′R,6′S,9′S)-4′-isopropyl-7′,7′-dimethyl-3′-(4-(trifluoromethyl)phenyl)-6′,7′,8′,9′-tetrahydro-3′H-spiro[cyclopentane-1,1′-furo[3,4-c]quinoline]-6′,9′-diol] | 394
CC(C)c1nc2c(c3c1[C@@H](c1ccc(C(F)(F)F)cc1)OC31CCCC1)[C@@H](O)CC(C)(C)[C@H]2O [Example 3, (3′R,6′R,9′S)-4′-isopropyl-7′,7′-dimethyl-3′-(4-(trifluoromethyl)phenyl)-6′,7′,8′,9′-tetrahydro-3′H-spiro[cyclopentane-1,1′-furo[3,4-c]quinoline]-6′,9′-diol] | 20
